Measured values: patent US20060281700A1, “SYNERGISTIC MODULATION OF FLT3 KINASE USING AMINOPYRIMIDINES KINASE MODULATORS” (priority 2005, published 2006)

Target: T1, isolated kinase domain of the human FLT3 receptor (a.a. 571-993) (Homo sapiens, UniProt P36888)
T1 construct: isolated kinase domain of the human FLT3 receptor (a.a. 571-993)
T1 sequence (P36888 571-993): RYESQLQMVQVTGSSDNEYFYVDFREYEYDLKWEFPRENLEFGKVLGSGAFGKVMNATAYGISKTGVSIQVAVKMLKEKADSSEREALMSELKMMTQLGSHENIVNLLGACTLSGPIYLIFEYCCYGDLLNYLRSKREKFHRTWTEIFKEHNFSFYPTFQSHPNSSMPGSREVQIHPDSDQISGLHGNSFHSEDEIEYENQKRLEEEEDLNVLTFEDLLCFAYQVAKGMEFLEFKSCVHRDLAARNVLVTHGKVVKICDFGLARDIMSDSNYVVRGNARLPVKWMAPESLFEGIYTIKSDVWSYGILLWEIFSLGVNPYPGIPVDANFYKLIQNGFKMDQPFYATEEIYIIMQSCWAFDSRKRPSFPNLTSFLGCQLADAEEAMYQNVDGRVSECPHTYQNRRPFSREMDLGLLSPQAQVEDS
Assay: FLT3 Fluorescence Polarization Kinase Assay
Type: biochemical
Conditions: 10 nM FLT3 571-993, 150 uM ATP; uncertainty ±10%
Method: FLT3 Fluorescence Polarization Kinase Assay
To determine the activity of the FLT3 inhibitors of Formula I′ in an in vitro kinase assay, inhibition of the isolated kinase domain of the human FLT3 receptor (a.a. 571-993) was performed using the following fluorescence polarization (FP) protocol. The FLT3 FP assay utilizes the fluorescein-labeled phosphopeptide and the anti-phosphotyrosine antibody included in the Panvera Phospho-Tyrosine Kinase Kit (Green) supplied by Invitrogen. When FLT3 phosphorylates polyGlu4Tyr, the fluorescein-labeled phosphopeptide is displaced from the anti-phosphotyrosine antibody by the phosphorylated poly Glu4Tyr, thus decreasing the FP value. The FLT3 kinase reaction is incubated at room temperature for 30 minutes under the following conditions: 10 nM FLT3 571-993, 20 ug/mL poly Glu4Tyr, 150 uM ATP, 5 mM MgCl2, 1% compound in DMSO. The kinase reaction is stopped with the addition of EDTA. The fluorescein-labeled phosphopeptide and the anti-phosphotyrosine antibody are added and incubated for 30 minutes at room temperature.
All data points are an average of triplicate samples. Inhibition and IC50 data analysis was done with GraphPad Prism using a non-linear regression fit with a multiparamater, sigmoidal dose-response (variable slope) equation.

`CO/N=C/c1c(N)ncnc1N1CCC(OC(=O)Nc2ccc(OC(C)C)cc2)CC1` [Number 1, (4-Isopropoxy-phenyl)-carbamic acid 1-[6-amino-5-(methoxyimino-methyl)-pyrimidin-4-yl]-piperidin-4-yl ester] showed an IC50 of 150 nM.

`CCO/N=C/c1c(N)ncnc1N1CCC(OC(=O)Nc2ccc(OC(C)C)cc2)CC1` [Number 2, (4-Isopropoxy-phenyl)-carbamic acid 1-[6-amino-5-(ethoxyimino-methyl)-pyrimidin-4-yl]-piperidin-4-yl ester] showed an IC50 of 55 nM.

For `CC(C)Oc1ccc(NC(=O)OC2CCN(c3ncnc(N)c3/C=N/OCCCN(C)C)CC2)cc1` [Number 4, (4-Isopropoxy-phenyl)-carbamic acid 1-{6-amino-5-[(3-dimethylamino-propoxyimino)-methyl]-pyrimidin-4-yl}-piperidin-4-yl ester], the IC50 was 300 nM.

`CO/N=C/c1c(N)ncnc1N1CCC(OC(=O)Nc2ccc(C(C)C)cc2)CC1` [Number 5, (4-Isopropyl-phenyl)-carbamic acid 1-[6-amino-5-(methoxyimino-methyl)-pyrimidin-4-yl]-piperidin-4-yl ester] gave an IC50 of 29 nM.

Work on `CO/N=C/c1c(N)ncnc1N1CCC(CC(=O)Nc2ccc(C(C)C)cc2)C1` (stereo not shown) [Number 6, 2-{1-[6-Amino-5-(methoxyimino-methyl)-pyrimidin-4-yl]-pyrrolidin-3-yl}-N-(4-isopropyl-phenyl)-acetamide] yielded an IC50 of 16 nM.

`CO/N=C/c1c(N)ncnc1N1CCC(CC(=O)Nc2ccc(C(C)C)cc2)CC1` [Number 7, 2-{1-[6-Amino-5-(methoxyimino-methyl)-pyrimidin-4-yl]-piperidin-4-yl}-N-(4-isopropyl-phenyl)-acetamide] showed an IC50 of 81 nM.

`CO/N=C/c1c(N)ncnc1N1CCC(NC(=O)Nc2ccc(OC(C)C)cc2)C1` (stereo not shown) [Number 8, 1-{1-[6-Amino-5-(methoxyimino-methyl)-pyrimidin-4-yl]-pyrrolidin-3-yl}-3-(4-isopropoxy-phenyl)-urea] was tested, and the IC50 was 290 nM.

Compound `CO/N=C/c1c(N)ncnc1N1CCC(NC(=O)Nc2ccc(N3CCCCC3)cc2)C1` (stereo not shown) [Number 9, 1-{1-[6-Amino-5-(methoxyimino-methyl)-pyrimidin-4-yl]-pyrrolidin-3-yl}-3-(4-piperidin-1-yl-phenyl)-urea] has an IC50 of 450 nM.

Compound `CO/N=C/c1c(N)ncnc1N1CCC(NC(=O)Nc2ccc(N3CCOCC3)cc2)C1` (stereo not shown) [Number 10, 1-{1-[6-Amino-5-(methoxyimino-methyl)-pyrimidin-4-yl]-pyrrolidin-3-yl}-3-(4-morpholin-4-yl-phenyl)-urea] has an IC50 of 1100 nM.

Compound `CO/N=C/c1c(N)ncnc1N1CCC(NC(=O)Nc2ccc(OC3CCC3)nc2)C1` (stereo not shown) [Number 11, 1-{1-[6-Amino-5-(methoxyimino-methyl)-pyrimidin-4-yl]-pyrrolidin-3-yl}-3-(6-cyclobutoxy-pyridin-3-yl)-urea] has an IC50 of 160 nM.

`CO/N=C/c1c(N)ncnc1N1CCC(NC(=O)Nc2ccc(OC(C)C)cc2)CC1` [Number 12, 1-{1-[6-Amino-5-(methoxyimino-methyl)-pyrimidin-4-yl]-piperidin-4-yl}-3-(4-isopropoxy-phenyl)-urea] was tested, and the IC50 was 460 nM.

`CO/N=C/c1c(N)ncnc1N1CCC(NC(=O)Nc2ccc(N3CCCCC3)cc2)CC1` [Number 13, 1-{1-[6-Amino-5-(methoxyimino-methyl)-pyrimidin-4-yl]-piperidin-4-yl}-3-(4-piperidin-1-yl-phenyl)-urea] was tested, and the IC50 was 310 nM.

With `CO/N=C/c1c(N)ncnc1N1CCC(NC(=O)Nc2ccc(N3CCOCC3)cc2)CC1` [Number 14, 1-{1-[6-Amino-5-(methoxyimino-methyl)-pyrimidin-4-yl]-piperidin-4-yl}-3-(4-morpholin-4-yl-phenyl)-urea] the IC50 was 880 nM.

With `CO/N=C/c1c(N)ncnc1N1CCC(NC(=O)Nc2ccc(OC3CCC3)nc2)CC1` [Number 15, 1-{1-[6-Amino-5-(methoxyimino-methyl)-pyrimidin-4-yl]-piperidin-4-yl}-3-(6-cyclobutoxy-pyridin-3-yl)-urea] the IC50 was 410 nM.

In the case of `CO/N=C/c1c(N)ncnc1N1CCC(NC(=O)Nc2ccc(C3CCCCC3)cc2)C1` (stereo not shown) [Number 17, 1-{1-[6-Amino-5-(methoxyimino-methyl)-pyrimidin-4-yl]-pyrrolidin-3-yl}-3-(4-cyclohexyl-phenyl)-urea], the IC50 is reported as over 10000 nM.

`CO/N=C/c1c(N)ncnc1N1CCC(NC(=O)Nc2ccc(Cl)cc2)C1` (stereo not shown) [Number 18, 1-{1-[6-Amino-5-(methoxyimino-methyl)-pyrimidin-4-yl]-pyrrolidin-3-yl}-3-(4-chloro-phenyl)-urea] was tested, and the IC50 was 2970 nM.

For `CO/N=C/c1c(N)ncnc1N1CCC(NC(=O)Nc2ccc(Oc3ccccc3)cc2)C1` (stereo not shown) [Number 19, 1-{1-[6-Amino-5-(methoxyimino-methyl)-pyrimidin-4-yl]-pyrrolidin-3-yl}-3-(4-phenoxy-phenyl)-urea], the IC50 was 2500 nM.

With `CO/N=C/c1c(N)ncnc1N1CCC(NC(=O)Nc2ccc(N3CCCC3)cc2)C1` (stereo not shown) [Number 20, 1-{1-[6-Amino-5-(methoxyimino-methyl)-pyrimidin-4-yl]-pyrrolidin-3-yl}-3-(4-pyrrolidin-1-yl-phenyl)-urea] the IC50 was 4500 nM.

`CO/N=C/c1c(N)ncnc1N1CCC(NC(=O)Nc2ccc(OC3CCCC3)nc2)C1` (stereo not shown) [Number 21, 1-{1-[6-Amino-5-(methoxyimino-methyl)-pyrimidin-4-yl]-pyrrolidin-3-yl}-3-(6-cyclopentyloxy-pyridin-3-yl)-urea] showed an IC50 of 4500 nM.

`CO/N=C/c1c(N)ncnc1N1CCC(NC(=O)Nc2ccc(C3CCCCC3)cc2)CC1` [Number 22, 1-{1-[6-Amino-5-(methoxyimino-methyl)-pyrimidin-4-yl]-piperidin-4-yl}-3-(4-cyclohexyl-phenyl)-urea] showed an IC50 of 78 nM.

For `CO/N=C/c1c(N)ncnc1N1CCC(NC(=O)Nc2ccc(OC3CCCC3)nc2)CC1` [Number 23, 1-{1-[6-Amino-5-(methoxyimino-methyl)-pyrimidin-4-yl]-piperidin-4-yl}-3-(6-cyclopentyloxy-pyridin-3-yl)-urea], the IC50 was 65 nM.

`CO/N=C/c1c(N)ncnc1N1CCC(NC(=O)Nc2ccc(Cl)cc2)CC1` [Number 25, 1-{1-[6-Amino-5-(methoxyimino-methyl)-pyrimidin-4-yl]-piperidin-4-yl}-3-(4-chloro-phenyl)-urea] was tested, and the IC50 was 34 nM.

`CO/N=C/c1c(N)ncnc1N1CCC(NC(=O)Nc2ccc(Oc3ccccc3)cc2)CC1` [Number 26, 1-{1-[6-Amino-5-(methoxyimino-methyl)-pyrimidin-4-yl]-piperidin-4-yl}-3-(4-phenoxy-phenyl)-urea] showed an IC50 of 20 nM.

`CCNC(=O)NCCO/N=C/c1c(N)ncnc1N1CCC(NC(=O)Nc2ccc(C(C)C)cc2)C1` (stereo not shown) [Number 28, 1-[1-(6-Amino-5-{[2-(3-ethyl-ureido)-ethoxyimino]-methyl}-pyrimidin-4-yl)-pyrrolidin-3-yl]-3-(4-isopropyl-phenyl)-urea] was tested, and the IC50 was 2700 nM.

For `CC(C)c1ccc(NC(=O)NC2CCN(c3ncnc(N)c3/C=N/OCC(=O)N3CCOCC3)C2)cc1` (stereo not shown) [Number 29, 1-(1-{6-Amino-5-[(2-morpholin-4-yl-2-oxo-ethoxyimino)-methyl]-pyrimidin-4-yl}-pyrrolidin-3-yl)-3-(4-isopropyl-phenyl)-urea], the IC50 was 1200 nM.
